Data published in US20100138947A1, “Method for Producing Stem Cells or Stel Cell-Like Cells from Mammalian Embryos” (priority 2005, published 2010).

Tests used:
[1] = test system: mouse pre-implantation embryos (129sv x OG2 Oct4-EGFP); experiment: Isolation of ES-like cells from mouse morula/blastocysts pre-treated with 5-aza-cytidine (Oct4-EGFP reporter); format: cell-based; conditions: 1 μM for 24 h pre-treatment
Method: Pre-pubertal (5-6 week old) 129sv females were super-ovulated using a routine protocol (1 IU PMSG and HCG injected i.p. 48h apart) before mating with OG2 males. […] The OG2 males, used as studs for mating, were C57/B16 strain and transgenic for an Oct4-EGFP construct. All pluripotent cells from these mice express GFP and this property was exploited in this study with GFP being used as a fluorescent marker to facilitate the identification of ESCs once derived. Zygotes were collected from the oviduct of humanely killed female mice. Cumulus cells were removed from zygotes by treatment with Hyaluronidase (300 IU/ml) in KSOM medium (Chemicon). The zygotes were carefully washed to remove hyaluronidase and transferred to a fresh dish with culture drops in a 37° C. incubator and allowed to develop to the morula/blastocyst stage. Treatment of Morula/Blastocyst with 1 μM of 5-aza-cytidine. Morula/blastocysts were cultured in the KSOM culture drops supplemented with 1 μM 5-aza-cytidine for 24 hr. F1 (CBA/C57) MEF's were used as a feeder layer to facilitate attachment of embryos and subsequent isolation and support of ESCs. MEF's were inactivated by treatment with mitomycin C (10 μg/ml) for 2.5 hr in the 37° C. incubator and plated at the rate of 3×10^5 cells/ml per 6 cm dish. […]

[2] = test system: Bovine D7.5 embryos at the blastocyst stage; experiment: Culture of crushed whole bovine blastocysts on MEF feeder layer with 5′-azacytidine (primary and passaged outgrowths); format: cell-based
Method: Bovine D7.5 embryos at the blastocyst stage were crushed and depressed into mouse embryonic feeder (MEF) layers, using fine-tipped glass micropipettes or Ultra-fine needle insulin syringe, and cultured in alpha-MEM medium in presence of bFGF, hEGF, ITS, hrLIF, 2-beta-ME, Glutamax, NEAA and 20% FCS. On the same day or on the following day the media was replaced with fresh media containing (treated group) or not containing (untreated group) 5 μM 5′-azacytidine. The media in each group was changed every 3 days.
After seven to nine days, non-treated and treated “squashed” whole embryos developed morphologically distinguishable primary embryonal outgrowths.
These cell colonies reached confluence in 14-21 days, depending on the number of pieces that were placed in the dish. The growing colonies which developed into confluent monolayers expressed marker of pluripotency, such as Oct4.

For `Nc1ncn([C@@H]2O[C@H](CO)[C@@H](O)[C@H]2O)c(=O)n1` [5′-azacytidine, 5-azacytidine], the “Expression of GFP transgene under control of Oct4 in putative ESCs” value ([1]; then 0.1 μM in modified ESC medium) was “expressed a GFP transgene”, the “Formation of ESC-like colonies from embryonal explants” value ([1]; then 0.1 μM in modified ESC medium on feeder layer, 8-10 days of culture) was “colonies of cells resembling ESCs were observed” and the “Cell composition/morphology of primary embryonal outgrowth (treated outgrowth, TRO)” value ([2]; 5 μM, after seven to nine days of culture, untreated outgrowths contained pluripotent, trophoblast and primitive endoderm cells) was “consisting only of cells with morphology, characteristic of bovine ES-like cells”. The “Expression of markers of pluripotency Oct4, Rex1 and SSEA-1 in TRO outgrowths” value ([2]; 5 μM, in control outgrowths only the PC part expressed the markers) was “all the cells expressed these markers”, the “Diameter of TRO outgrowths” value ([2]; 5 μM, over the next 9-12 days, without any changes in morphology) was “about 2 cm” and the “Same effects on primary and passaged cultures at reduced concentration” value ([2]; concentration reduced to below 2.5 μM) was “not observed”. For the same compound, the “Time for passaged colonies to reach confluence” value ([2]; passaged TRO in the presence of 5′-azacytidine, depends on number of pieces in the dish) was 14 to 21 days and the “Colony formation of passaged TRO outgrowths” value ([2]; primary TRO cultured 14-21 days, split into 600-800 μm pieces, passaged onto fresh feeder layer, cultured in the presence of 5′-azacytidine) was “able to form colonies of cells with uniform morphology, characteristic of bovine ES-like cells”.
